Source: patent US10881749B2, “Probes and methods of imaging a bacterial infection” (The Board of Trustees of the Leland Stanford Junior …, priority 2015, dated 2021)

Columns and labels:
E. coli [1] = assay: Uptake of tracer in E. coli bacterial culture, with maltose competition; assay type: cell-based, Escherichia coli; details: for blocking of uptake in E. coli by co-incubation with cold maltose: co-incubation with 1 mM of cold maltose, p<0.0003; for accumulation (uptake) of tracer in E. coli over time: in vitro bacterial culture
Experimental: FIG. 2.1 is a graph showing uptake of 6″-[^18F]fluoromaltotriose in vitro in E coli at 15 minutes, 30 minutes, and 30 minutes with 1 mM of maltose.
6″-[^18F]-fluoromaltotriose (FIG. 1.1B) was synthesized. The uptake of 6″-[^18F]-fluoromaltotriose was evaluated in E. coli. […] The uptake in E. coli could also be blocked by a co-incubation with 1 mM of cold maltose (98% blocking, p<0.0003), the natural substrate of the transporter, confirming that the tracer was a substrate of the bacterial maltose transporter. 10^8 colony-forming units (CFU) of E. coli was then inoculated in the right thigh muscle of nude mice (n=4). 24 h later, 200 uCi of the 6″-[^18F]-fluoromaltotriose was administered via tail vein and dynamic PET/CT scans were obtained over the course of one hour. […] The route of clearance of the tracer is renal which makes it suitable for clinical translation.
In regard to FIG. 5.1A, 6″-[^18F]fluoromaltotriose was synthesized from precursor per-O-acetyl-6″-deoxy-6″-nosyl-maltotriose (1). Precursor 1 was prepared from per-O-acetyl-6″-hydroxymaltotriose via a nosylation reaction. This method utilizes the reaction between the leaving group nosylate in precursor 1 and anhydrous [^18F]KF/Kryptofix 2.2.2 in acetonitrile at 85° C. for 15 min to give per-O-acetyl-6″-deoxy-6″-[^18F]fluoromaltotriose (2). Basic hydrolysis of the acetyl protecting groups in 2 yielded 6″-[^18F]fluoromaltotriose (3). Also, cold 6″-fluoromaltotriose (for comparison with 6″ [^18F]fluoromatotriose) was prepared from per-O-acetyl-6-hydroxymaltotriose via a DAST reaction followed by a basic hydrolysis. Escherichia-coli uptake of 6″-[^18F]fluoromaltotriose was evaluated in bacterial culture.
We have successfully synthesized 6″-[^18F]fluoromaltotriose in 4-7% radiochemical yield (decay corrected) with 95% chemical and radio-chemical purities. Total synthesis time was 125 min. […] This observation is consistent with 6″-[^18F]fluoromaltotriose being recognized and transported by the bacteria in a manner similar to maltose.

E. coli [2] = assay: PET/CT imaging of E. coli infection in thigh muscle of nude mice; assay type: in vivo; details: for route of clearance: mice, intravenous (tail vein)
Experimental: FIGS. 1.1A-B show PET/CT scan of a mouse that had been injected with 200 μCi of 6″-[^18F]-fluoromaltotriose. The arrow indicates the site of infection.
6″-[^18F]-fluoromaltotriose (FIG. 1.1B) was synthesized. The uptake of 6″-[^18F]-fluoromaltotriose was evaluated in E. coli. […] The uptake in E. coli could also be blocked by a co-incubation with 1 mM of cold maltose (98% blocking, p<0.0003), the natural substrate of the transporter, confirming that the tracer was a substrate of the bacterial maltose transporter. 10^8 colony-forming units (CFU) of E. coli was then inoculated in the right thigh muscle of nude mice (n=4). […] The route of clearance of the tracer is renal which makes it suitable for clinical translation.

[3] = Biodistribution and pharmacokinetics in mice; assay type: in vivo; details: FIG. 3.1
From the text: FIG. 3.1 illustrates a graph comparing the biodistribution and pharmacokinetics of 6-fluoromaltose and 6″-fluoromaltotriose in mice.
FIG. 3.1, example 3, illustrates a graph comparing the biodistribution and pharmacokinetics of 6-fluoromaltose and 6″-Fluoromaltotriose in mice.

[4] = listed as 6″-[^18F]fluoromaltotriose

OC[C@H]1O[C@H](O[C@H]2[C@H](O)[C@@H](O)C(O)O[C@@H]2CO)[C@H](O)[C@@H](O)[C@@H]1O[C@H]1O[C@H](C[18F])[C@@H](O)[C@H](O)[C@H]1O (some centres unmarked) [6″-[^18F]-fluoromaltotriose, 6″-[^18F]fluoromaltotriose]
blocking of uptake in E. coli by co-incubation with cold maltose (E. coli [1]): 98% | blocking of uptake in E. coli by co-incubation with cold maltose (E. coli [1]; [4]): 90% | accumulation (uptake) of tracer in E. coli over time (E. coli [1]): increased over time | accumulation (uptake) of tracer in E. coli over time (E. coli [1]; listed as 6″-[^19F]fluoromaltotriose): time dependent | imaging of viable bacteria (E. coli [2]; 2 hours after implantation (FIG. 1.2)): can image 10^8 CFU of viable bacteria | accumulation of tracer at the site of infection (PET/CT image) (E. coli [2]; PET/CT image at 1 hour, 24 h after inoculation): clearly accumulated in the infected leg | uptake in infected muscle relative to contra-lateral muscle (E. coli [2]; ROI analysis, PET/CT, p<0.05): 3.1 fold | route of clearance (E. coli [2]): renal | route of clearance (E. coli [2]; [4]): predominantly renal clearance | average uptake in infected muscle (ROI analysis) (E. coli [2]; nude mice, 10^8 CFU E. coli in right thigh muscle, 24 h later 200 uCi via tail vein, PET/CT at 1 hour, mean±SD): 4.7±1.3 % ID/g | tissue uptake as compared to first generation tracer 6-fluoromaltose [3]: reduced blood, heart, liver, lung and muscle uptake
